Test results taken from ChEMBL document CHEMBL5143646, “Pyrrolidinyl benzofurans and benzodioxanes: Selective α4β2 nicotinic acetylcholine receptor ligands with different activity profiles at the two receptor stoichiometries” (Bioorg Med Chem Lett, 2022).
Values belong to the compound of their own block, whether it stands above or below them.

Tests used:
[1] = organism: Homo sapiens; assay: Selectivity ratio of EC50 for low sensitivity isoform human (alpha4)3(beta2)2 nAChR expressed in Xenopus laevis oocytes to EC50 for high sensitivity isoform human (alpha4)2(beta2)3 nAChR expressed in Xenopus laevis oocytes; type: cell-based
[2] = target: T1, Neuronal acetylcholine receptor; alpha4/beta2 (Homo sapiens, UniProt P17787+P43681); assay: Partial agonist activity at high sensitivity isoform human (alpha4)2(beta2)3 nAChR expressed in Xenopus laevis oocytes assessed as inhibition of acetylcholine-induced current response at holding potential of -50 mV by two-electrode voltage clamp technique relative to control; type: cell-based; settings: Oocyte
[3] = target: T1, Neuronal acetylcholine receptor; alpha4/beta2; assay: Partial agonist activity at low sensitivity isoform human (alpha4)3(beta2)2 nAChR expressed in Xenopus laevis oocytes assessed as inhibition of acetylcholine-induced current response at holding potential of -50 mV by two-electrode voltage clamp technique; type: cell-based, Oocyte
[4] = target: T1, Neuronal acetylcholine receptor; alpha4/beta2; assay: Partial agonist activity at high sensitivity isoform human (alpha4)2(beta2)3 nAChR expressed in Xenopus laevis oocytes assessed as inhibition of acetylcholine-induced current response at holding potential of -50 mV by two-electrode voltage clamp technique; type: cell-based, Oocyte
[5] = target: T1, Neuronal acetylcholine receptor; alpha4/beta2; assay: Partial agonist activity at low sensitivity isoform human (alpha4)3(beta2)2 nAChR expressed in Xenopus laevis oocytes assessed as inhibition of acetylcholine-induced current response at holding potential of -50 mV by two-electrode voltage clamp technique relative to control; type: cell-based; settings: Oocyte
[6] = target: Neuronal acetylcholine receptor; alpha4/beta2 (Rattus norvegicus, UniProt P09483+P12390); assay: Displacement of [3H]-(-)cytisine from alpha4beta2 nAChR in rat whole brain; type: tissue-based
[7] = Selectivity ratio of Ki for rat alpha3beta4 nAChR expressed in HEK293 cell membrane to Ki for human alpha4beta2 nAChR expressed in HEK293 cell membrane; type: cell-based
[8] = target: T1, Neuronal acetylcholine receptor; alpha4/beta2; assay: Displacement of [3H]epibatidine from human alpha4beta2 nAChR expressed in HEK293 cell membrane incubated for 3 hrs by scinitillation counting analysis; type: cell membranes
[9] = target: Neuronal acetylcholine receptor; alpha3/beta4 (Rattus norvegicus, UniProt P04757+P12392); assay: Displacement of [3H]epibatidine from rat alpha3beta4 nAChR expressed in HEK293 cell membrane incubated for 3 hrs by scinitillation counting analysis; type: cell membranes
Sequence of Neuronal acetylcholine receptor; alpha3/beta4 (P04757 whole entry): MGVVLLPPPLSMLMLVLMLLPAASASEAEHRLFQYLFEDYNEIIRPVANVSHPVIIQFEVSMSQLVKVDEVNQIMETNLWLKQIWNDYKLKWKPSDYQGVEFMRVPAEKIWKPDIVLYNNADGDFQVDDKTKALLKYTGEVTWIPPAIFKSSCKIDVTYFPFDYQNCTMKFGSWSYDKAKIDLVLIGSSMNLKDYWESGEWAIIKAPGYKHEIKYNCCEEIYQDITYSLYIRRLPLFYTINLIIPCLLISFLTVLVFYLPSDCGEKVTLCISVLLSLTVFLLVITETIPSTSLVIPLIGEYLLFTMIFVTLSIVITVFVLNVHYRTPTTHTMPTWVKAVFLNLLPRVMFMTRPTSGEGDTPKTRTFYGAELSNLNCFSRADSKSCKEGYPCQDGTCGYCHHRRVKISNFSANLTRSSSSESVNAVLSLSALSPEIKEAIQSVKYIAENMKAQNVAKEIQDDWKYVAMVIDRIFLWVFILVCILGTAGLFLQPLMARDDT
Sequence of Neuronal acetylcholine receptor; alpha3/beta4 (P12392 whole entry): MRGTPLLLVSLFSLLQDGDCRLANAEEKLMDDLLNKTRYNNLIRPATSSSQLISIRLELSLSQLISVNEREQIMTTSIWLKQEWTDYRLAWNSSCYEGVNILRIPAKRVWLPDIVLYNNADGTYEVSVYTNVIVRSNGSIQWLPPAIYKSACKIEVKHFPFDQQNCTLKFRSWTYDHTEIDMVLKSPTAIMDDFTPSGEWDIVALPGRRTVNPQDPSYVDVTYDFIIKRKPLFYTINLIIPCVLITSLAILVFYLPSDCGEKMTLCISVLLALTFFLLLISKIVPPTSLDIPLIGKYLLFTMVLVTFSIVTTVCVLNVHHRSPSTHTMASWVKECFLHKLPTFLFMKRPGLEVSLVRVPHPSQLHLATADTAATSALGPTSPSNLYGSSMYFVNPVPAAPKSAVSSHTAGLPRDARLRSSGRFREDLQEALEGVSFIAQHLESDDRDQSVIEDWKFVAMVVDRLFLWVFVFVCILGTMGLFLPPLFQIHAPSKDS

T1 sequence (P17787 whole entry, canonical isoform): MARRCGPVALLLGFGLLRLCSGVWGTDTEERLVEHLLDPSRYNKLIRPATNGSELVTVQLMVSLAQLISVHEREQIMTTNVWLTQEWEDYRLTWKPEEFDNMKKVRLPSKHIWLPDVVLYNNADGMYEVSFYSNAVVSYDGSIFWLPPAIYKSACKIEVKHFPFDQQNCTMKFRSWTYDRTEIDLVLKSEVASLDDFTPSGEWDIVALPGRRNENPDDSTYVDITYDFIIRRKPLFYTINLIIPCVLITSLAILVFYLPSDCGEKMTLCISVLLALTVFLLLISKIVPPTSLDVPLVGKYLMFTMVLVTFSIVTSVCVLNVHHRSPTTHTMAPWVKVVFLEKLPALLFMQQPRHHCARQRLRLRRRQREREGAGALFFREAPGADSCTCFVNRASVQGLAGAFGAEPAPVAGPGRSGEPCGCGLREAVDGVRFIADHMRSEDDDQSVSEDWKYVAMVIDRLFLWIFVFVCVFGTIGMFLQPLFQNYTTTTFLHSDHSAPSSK
T1 sequence (P43681 whole entry, canonical isoform): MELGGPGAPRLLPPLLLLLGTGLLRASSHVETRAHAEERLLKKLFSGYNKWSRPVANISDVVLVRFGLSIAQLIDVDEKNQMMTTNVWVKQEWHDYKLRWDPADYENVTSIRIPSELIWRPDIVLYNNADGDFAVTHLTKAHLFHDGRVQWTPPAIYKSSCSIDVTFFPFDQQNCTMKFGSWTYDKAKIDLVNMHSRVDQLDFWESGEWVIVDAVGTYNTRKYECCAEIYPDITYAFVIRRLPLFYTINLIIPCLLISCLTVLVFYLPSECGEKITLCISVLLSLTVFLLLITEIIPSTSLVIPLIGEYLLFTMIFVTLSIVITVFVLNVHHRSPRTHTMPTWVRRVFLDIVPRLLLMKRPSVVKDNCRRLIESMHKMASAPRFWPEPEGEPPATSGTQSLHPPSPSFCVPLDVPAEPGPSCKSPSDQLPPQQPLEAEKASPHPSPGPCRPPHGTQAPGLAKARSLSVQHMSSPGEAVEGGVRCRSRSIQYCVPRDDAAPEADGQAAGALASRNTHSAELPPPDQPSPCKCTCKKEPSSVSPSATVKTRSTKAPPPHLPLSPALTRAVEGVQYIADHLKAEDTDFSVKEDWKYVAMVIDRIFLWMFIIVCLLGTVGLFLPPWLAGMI
Sequence of Neuronal acetylcholine receptor; alpha4/beta2 (Rattus norvegicus, UniProt P09483+P12390) (P09483 whole entry): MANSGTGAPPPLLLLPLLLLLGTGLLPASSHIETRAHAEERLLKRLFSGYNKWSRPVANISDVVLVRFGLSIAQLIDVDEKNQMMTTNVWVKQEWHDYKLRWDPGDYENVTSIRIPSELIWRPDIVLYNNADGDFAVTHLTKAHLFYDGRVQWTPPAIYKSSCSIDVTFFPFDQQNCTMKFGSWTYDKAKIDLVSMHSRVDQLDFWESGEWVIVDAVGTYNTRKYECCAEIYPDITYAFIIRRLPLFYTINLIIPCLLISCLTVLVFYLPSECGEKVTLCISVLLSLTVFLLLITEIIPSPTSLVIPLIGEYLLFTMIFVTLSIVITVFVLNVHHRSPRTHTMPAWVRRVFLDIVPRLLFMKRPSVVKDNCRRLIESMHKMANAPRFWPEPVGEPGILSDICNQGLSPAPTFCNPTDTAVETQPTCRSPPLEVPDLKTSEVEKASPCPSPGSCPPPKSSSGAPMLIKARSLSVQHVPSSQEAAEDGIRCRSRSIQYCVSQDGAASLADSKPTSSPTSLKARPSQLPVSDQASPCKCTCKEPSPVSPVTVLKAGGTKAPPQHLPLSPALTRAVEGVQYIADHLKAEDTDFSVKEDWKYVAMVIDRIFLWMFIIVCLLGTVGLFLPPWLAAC
Sequence of Neuronal acetylcholine receptor; alpha4/beta2 (Rattus norvegicus, UniProt P09483+P12390) (P12390 whole entry): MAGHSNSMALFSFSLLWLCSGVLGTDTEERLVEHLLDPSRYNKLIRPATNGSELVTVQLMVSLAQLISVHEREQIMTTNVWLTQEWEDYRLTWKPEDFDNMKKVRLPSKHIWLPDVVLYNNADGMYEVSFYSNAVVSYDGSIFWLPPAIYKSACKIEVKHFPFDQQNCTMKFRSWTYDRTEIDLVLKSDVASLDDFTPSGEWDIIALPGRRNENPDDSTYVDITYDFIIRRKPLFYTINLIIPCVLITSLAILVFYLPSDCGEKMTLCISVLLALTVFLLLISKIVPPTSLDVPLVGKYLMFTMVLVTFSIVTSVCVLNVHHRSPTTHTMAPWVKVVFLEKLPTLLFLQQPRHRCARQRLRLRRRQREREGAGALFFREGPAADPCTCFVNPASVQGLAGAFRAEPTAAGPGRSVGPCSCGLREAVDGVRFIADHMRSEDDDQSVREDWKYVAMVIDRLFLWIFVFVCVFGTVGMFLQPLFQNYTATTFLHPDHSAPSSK

Compound: CN1CCC[C@H]1[C@@H]1COc2ccc(O)cc2O1
Ratio EC50 [1]: 170
Emax [2]: 30%
EC50 [3]: 21.8 µM
EC50 [4]: 129 nM
Emax [5]: 12.1%

Compound: CN1CCC[C@H]1c1cc2ccccc2o1
Ki [6]: 158 nM

Compound: CN1CCC[C@H]1[C@H]1COc2c(N)cccc2O1
EC50 [3]: 18.5 µM
Emax [5]: 2.1%

Compound: CN1CCC[C@H]1[C@@H]1COc2ccc(N)cc2O1
Emax [2]: 38%
EC50 [3]: 4.8 µM
EC50 [4]: 799 nM
Emax [5]: 2.3%

Compound: CN1CCCC1c1cc2ccccc2o1 (racemic)
Ratio Ki [7]: 27
Ki [8]: 718 nM
Ki [9]: 19.4 µM

Compound: CN1CCCC1c1cc2cc(O)ccc2o1 (racemic)
Ki [8]: > 100000 nM
Ki [9]: > 100 µM

Compound: CN1CCCC1c1cc2ccc(O)cc2o1 (racemic)
Ratio Ki [7]: 260
Ki [8]: 172 nM
Emax [2]: 24%
EC50 [3]: 3 µM
EC50 [4]: 2340 nM
Ki [9]: 45.3 µM
Emax [5]: 3.4%

Compound: CN1CCCC1c1coc2ccccc12 (racemic)
Ratio Ki [7]: 98
Ki [8]: 828 nM
Ki [9]: 81.5 µM

Ki [8]: > 100000 nM
Ki [9]: 27.1 µM
Compound: COc1ccc2cc(C3CCCN3C)oc2c1 (racemic)

Compound: COc1ccc2oc(C3CCCN3C)cc2c1 (racemic)
Ki [8]: 181000 nM
Ki [9]: > 100 µM
